{"source": "patent US20060052312A1", "about": "“Paclitaxel hybrid derivatives” (priority 2003, published 2006)", "key": {"[1]": {"assay": "Stability of PAC esters in aqueous media at pH 7.4 and 37° C.", "type": "physicochemical", "conditions": "read-out: T½ (apparent half-life in aqueous media) (converted)"}, "[2]": {"system": "MDR over non-MDR human breast cancer cell lines", "assay": "MDR liability: growth inhibition in MDR over non-MDR human breast cancer cell lines", "type": "cell-based"}, "[3]": {"system": "MCF7 human breast cancer cell", "assay": "Inhibition of MCF7 human breast cancer cell growth (non-MDR cell line)", "type": "cell-based", "conditions": "read-out: Potency (dose that inhibits MCF7 human breast cancer cell growth by 50%)"}}, "data": [{"smiles": "CC(=O)O[C@H]1C(=O)[C@@]2(C)[C@H]([C@H](OC(=O)c3ccccc3)[C@]3(O)C[C@H](OC(=O)[C@H](O)[C@@H](NC(=O)c4ccccc4)c4ccccc4)C(C)=C1C3(C)C)[C@]1(OC(C)=O)CO[C@@H]1C[C@@H]2O", "note": "[PAC, Paclitaxel]", "values": [{"measurement": "half-life", "setting": "[1]", "value": 11.6, "unit": "days"}, {"measurement": "MDR liability", "setting": "[2]", "value": "about 1000 fold"}, {"measurement": "MDR Liability (ratio of doses inhibiting growth by 50% in MDR over non-MDR human breast cancer cell lines)", "setting": "[2]; MDR over non-MDR human breast cancer cell lines", "value": 1041}, {"measurement": "IC50", "setting": "[3]", "value": 6.9, "unit": "nM"}]}]}
